Assay results reported in patent EP1000062B1, “TRICYCLIC VASOPRESSIN AGONISTS” (Wyeth, priority 1997, dated 1999).

Experiments:
Assay type in all cases: in vivo
Vasopressin V2 [1] = assay: Vasopressin V2 agonist effects of test compounds in normal conscious water-loaded rats; conditions: Sprague-Dawley (CD) rats, oral 1 mg/kg, urine collected for four hours; for Osmolality (% Increase): change in osmolality as percent of control; for Urine Volume (% decrease): vs. control
Vasopressin V2 [2] = assay: Vasopressin V2 agonist effects of test compounds in normal conscious homozygous Brattleboro rats with central diabetes insipidus; conditions: Brattleboro (BB) rats, oral 10 mg/kg, urine collected for six hours; for Osmolality (% Increase): change in osmolality as percent of control; for Urine Volume (% decrease): vs. control
Excerpt: Vasopressin V2 Agonist Effects of Test Compounds in Normal Conscious Homozygous Brattleboro Rats with Central Diabetes Insipidus
Male or female homozygous Brattleboro rats (Harlan Sprague Dawley, Inc., Indianapolis, IN) of 250-350 g body weight were supplied with standard rodent diet (Purina Rodent Lab. Chow 5001) and water ad libitum. On the day of test, rats were placed individually into metabolic cages equipped with devices to separate the feces from the urine and containers for collection of urine. Test compound or reference agent was given at an oral dose of 1 to 10 mg/kg in a volume of 10 ml /kg. The vehicle used was 20% dimethylsulfoxide (DMSO) in 2.5% preboiled corn starch. During the test, rats were provided with water ad libitum. Urine was collected for six hours after dosing of the test compound. At the end of six hours, urine volume was measured. Urinary osmolality was determined using a Fiske One-Ten Osmometer (Fiske Associates, Norwood, MA, 02062) or an Advanced CRYOMATIC Osmometer, Model 3C2 (Advanced Instruments, Norwood, MA). Determinations of Na^+, K^+ and Cl^- ion were carried out using ion specific electrodes in a Beckman SYNCHRON EL-ISE Electrolyte System analyzer. This animal model was mainly used for evaluation of potency and duration of action of the active compounds.

Vasopressin V2 [3] = assay: Vasopressin V2 agonist effects of test compounds in normal conscious water-loaded rats; conditions: Sprague-Dawley (CD) rats, oral 10 mg/kg, urine collected for four hours; for Osmolality (% Increase): change in osmolality as percent of control; for Urine Volume (% decrease): vs. control

| Compound | Osmolality (% Increase) (Vasopressin V2 [3]) [%] | Urine Volume (% decrease) (Vasopressin V2 [3]) [%] | other results |
| --- | --- | --- | --- |
| Cc1ccn(-c2ccc(C(=O)N3Cc4cccn4Cc4ccccc43)c(C(F)(F)F)c2)n1 [Example 2, [4-(3-Methyl-pyrazol-1-yl)-2-trifluoromethyl-phenyl](5H,11H-pyrrolo[2,1-c]-[1,4]benzadiazepin-10-yl)-methanone] |  |  | Osmolality (% Increase) (Vasopressin V2 [1]): 306% (1 mg/kg); Urine Volume (% decrease) (Vasopressin V2 [1]): 80% (1 mg/kg) |
| Cc1ccn(-c2ncc(C(=O)N3Cc4cccn4Cc4ccccc43)c(C(F)(F)F)n2)n1 [Example 20, [2-(3-Methyl-pyrazol-1-yl)-4-trifluoromethyl-pyrimidin-5-yl]-(5H,11H-pyrrolo[2,1-c][1,4]benzodiazepin-10-yl)-methanone] |  |  | Osmolality (% Increase) (Vasopressin V2 [1]): 152% (1 mg/kg); Urine Volume (% decrease) (Vasopressin V2 [1]): 25% (1 mg/kg) |
| CC(=O)n1ccc(-c2ccc(C(=O)N3Cc4cccn4Cc4ccccc43)cc2)n1 [Example 30, 1-{3-[4-(5H,11H-Pyrrolo[2,1-c][1,4]benzodiazepine-10-carbonyl)-phenyl]-pyrazol-1-yl}-ethanone] |  |  | Osmolality (% Increase) (Vasopressin V2 [2]): 334%; Urine Volume (% decrease) (Vasopressin V2 [2]): 81% |
| O=C(c1ccc(-c2ccn(C(=O)c3cccs3)n2)cc1)N1Cc2cccn2Cc2ccccc21 [Example 34, (5H,11H-Pyrrolo[2,1-c][1,4]benzodiazepin-10-yl)-{4-[1-(thiophene-2-carbonyl)-1H-pyrazoly-3-yl]phenyl}-methanone] |  |  | Osmolality (% Increase) (Vasopressin V2 [2]): 407%; Urine Volume (% decrease) (Vasopressin V2 [2]): 76% |
| Cc1ccccc1C(=O)n1ccc(-c2ccc(C(=O)N3Cc4cccn4Cc4ccccc43)cc2)n1 [Example 36, {4-[1-(2-Methyl-benzoyl)-1H-pyrazol-3-yl]-phenyl}-(5H,11H-pyrrolo[2,1-c][1,4]benzodiazepin-10-yl)-methanone] |  |  | Osmolality (% Increase) (Vasopressin V2 [2]): 164%; Urine Volume (% decrease) (Vasopressin V2 [2]): 66% |
| O=C(c1ccc(-c2ccn(C(=O)c3ccc(Cl)cc3Cl)n2)cc1)N1Cc2cccn2Cc2ccccc21 [Example 38, {4-[1-(2,4-Dichloro-benzoyl)-1H-pyrazol-3-yl]-phenyl}-(5H,11H-pyrrolo[2,1-c][1,4]benzodiazepin-10-yl)-methanone] |  |  | Osmolality (% Increase) (Vasopressin V2 [2]): 256%; Urine Volume (% decrease) (Vasopressin V2 [2]): 66% |
| Cn1ncnc1-c1ccc(C(=O)N2Cc3cccn3Cc3ccccc32)cc1 [Example 49, [4-(2-Methyl-2H-[1,2,4]triazol-3-yl)-phenyl]-(5H,11H-pyrrolo[2,1-c][1,4]-benzodiazepin-10-yl)-methanone] |  |  | Osmolality (% Increase) (Vasopressin V2 [2]): 221%; Urine Volume (% decrease) (Vasopressin V2 [2]): 74% |
| COc1cc(-n2ccc(C)n2)ccc1C(=O)N1Cc2cccn2Cc2ccccc21 [Example 107, [2-Methoxy-4-(3-methyl-pyrazol-1-yl)-phenyl](5H,11H-pyrrolo[2,1-c][1,4]-benzodiazepin-10-yl) methanone] | 125 | 31 |  |
| COc1cc(-n2ccc(C)n2)ccc1C(=O)N1Cc2ccc(CN(C)C)n2Cc2ccccc21 [Example 108, (3-Dimethylaminomethyl-5H,11H-pyrrolo[2,1-c][1,4]benzodiazepin-10-yl)[2-methoxy-4-(3-methyl-pyrazol-1-yl)-phenyl]-methanone] | 145 | 30 |  |
| Cc1ccn(-c2ccc(C(=O)N3Cc4cccn4Cc4ccccc43)c(O)c2)n1 [Example 109] | 95 | 21 |  |
| Cn1cc(-c2ccc(C(=O)N3Cc4cccn4Cc4ccccc43)c(Cl)c2)cn1 [Example 115, [2-Chloro-4-(1-methyl-1H-pyrazol-4-yl)phenyl) (5H,11H-pyrrolo[2,1-c][1,4]-benzodiazepin-10-yl)-methanone] | 229 | 66 |  |
| Cc1ccn(-c2ccc(C(=O)N3Cc4ccnn4Cc4ccccc43)c(Cl)c2)n1 [Example 116, [2-Chloro-4-(3-methyl-pyrazol-1-yl)-phenyl]-(4H,10H-pyrazolo[5,1-c][1,4]-benzodiazepin-5-yl)-methanone] | 256 | 66 |  |
| Cc1ccn(-c2ccc(C(=O)N3Cc4nnnn4Cc4ccccc43)c(Cl)c2)n1 [Example 117] | 311 | 68 |  |
| Cn1ccc(-c2ccc(C(=O)N3Cc4ccnn4Cc4ccccc43)cc2)n1 [Example 120A, [4-(1-Methyl-1H-pyrazol-3-yl)phenyl](4H,10H-pyrazolo[5,1c][1,4]-benzodiazepin-5-yl) methanone] | 269 | 66 |  |
| Cn1nccc1-c1ccc(C(=O)N2Cc3ccnn3Cc3ccccc32)cc1 [Example 120B, [4-(2-Methyl-1H-pyrazol-3-yl)phenyl](4H,10H-pyrazolo[5,1c][1,4]-benzodiazepin-5-yl) methanone] | 272 | 67 |  |
| CC(=O)c1ccc(C(=O)N2Cc3cccn3Cc3ccccc32)c(Cl)c1 [Example 121, 1-[4-(5H,11H-pyrrolo[2,1-c][1,4]benzodiazepine-10-carbonyl)-3-chlorophenyl]-ethanone] | 155 | 22 |  |
| [2-Chloro-4-(3-methyl-4-ethynyl-phenyl) (5H,11H-pyrrolo[2,1-c][1,4]-benzodiazepin-10-yl)-methanone [Example 123] | 663 | 88 |  |
